The NIST ThermoML archive (doi:10.1021/je101230a)
± gives the expanded uncertainty stated by the source.

Conditions: Crystal; DTA

Normal melting temperature: 198.00 ± 1.1 °C
SMILES: CCc1ccc(CCOc2ccc(CC3SC(=O)NC3=O)cc2)nc1.Cl (stereo unspecified)
